Results published in patent US4737519A, “Substituted naphthalenes, indoles, benzofurans, and benzothiophenes as lipoxygenase inhibitors” (The Upjohn Company, priority 1986, dated 1988).

What was measured:
[1] = system: SRS-A; assay: SRS-A synthesis inhibition in rat mononuclear cells incubated with cysteine and challenged with calcium ionophore; assay type: cell-based; details: 10 micrograms/ml
Experimental: This test is conducted in rat mononuclear cells incubated in the presence of cysteine and challenged with a calcium ionophore (which induces SRS-A formation). Among the nonamino compounds of this invention, in this test system, 1-acetoxy-2-n-butyl-4-methoxynaphthalene (Example 3) and 1-acetoxy-2,3-diethyl-4-methoxynaphthalene (Example 4) are preferred.

[2] = system: lipoxygenase; assay: lipoxygenase inhibition, oxygen uptake of washed human platelets with arachidonic acid; assay type: cell-based; details: for inhibition of 5-HETE production: 10 μm
Experimental: The compounds of the present invention were also tested for lipoxygenase inhibition. Arachidonic acid is added to washed human platelets and the oxygen uptake is measured using oxygraph cells. A decrease of oxygen uptake versus the control cell indicates inhibition of lipoxygenase. For a full description of the procedure see, Wallach, et al., Biochim. Biophys. Acta. 231: 445 (1976).

[3] = system: mucous secretion; assay: canine tracheal mucous secretion (hillock count); assay type: in vivo, mongrel dogs
Experimental: Mongrel dogs (weight 18-35 kg) were anesthetized with a mixture of chloralose (100 mg/kg) and urethane (500 mg/kg) via intravenous injection. The animals were secured to a surgery table, ventral side up, and the neck and inner right hind limb were shaved. A ventral midline incision was made in the neck using a Bovie CSVII electrosurgical unit, starting from the papillae (interramal) to the clavicle thus exposing the trachea. An endotracheal tube was secured into the lower trachea. The animals were then connected via the endotracheal tube to a Harvard respirator (Model 607A) that delivered room air at a constant tidal volume and frequency. Two polyethylene catheters were connected to the endotracheal tube, and one was connected to a medical gas analyzer (Beckman, Model LB-2) that continuously measured the carbon dioxide (CO2) content of the expired air for determination of end tidal CO2. The other was connected to a pressure transducer (Statham, Model PMI 131TC+2.5-350) for the measurement of airway press ure.
A second incision made in the inner right hind limb to expose the femoral artery and vein was made for the catheterization of these large vessels. A polyethylene catheter was tied into the artery and connected to a pressure transducer (Statham, Model P231D) for the measurement of blood pressure. This catheter also allowed for samples of arterial blood to be collected for measurements of blood gas tension using a blood gas analyser (Corning, Model 175). Another polyethylene catheter was tied into the femoral vein which was used for injecting additional anesthetic and paralyzing drugs. Gallamine triethiodide (20-40 mg) was used to paralyze the respiratory muscles and a single injection of sodium bicarbonate 7.5% (0.5 mg/kg) in conjunction with a continuous i.v. drip of 5% dextrose in 0.9% saline helped to maintain fluid balance. All physiological measurements were recorded and monitored on a polygraph (Grass instruments, Model 7D). Once the femoral cutdown was completed, surgery on the neck region resumed. The carotid artery was exposed and the "knuckle" (a portion of the carotid which bisects to supply blood flow to the trachea and neck muscles) was located. A small polyethylene catheter was then inserted into the muscular branch of the cranial thyroid artery (CTA). This allowed for close arterial injection of experimental agents. The strap muscles were removed and the mucosal surface of the trachea exposed by cutting along the anterior midline of the upper two-thirds of the extrathoracic trachea and pulling the cut edges widely apart. The exposed mucosa was checked for proper canulation by blanching and appropriate adjustments of the canula into the CTA were made until blanching was achieved.
Isometric tension measurements of the trachealis muscle were recorded by suturing a rigid, plastic bar to the (15) cartilaginous rings of the cut edges of the trachea, and connecting one side to a fixed restraint and the contralateral side to a force displacement transducer (Grass, Model FT 03C). An initial tension of 25-30 g/cm of trachea was applied to the muscle, and it was allowed to stabilize for 45 min. An initial zero tension point was determined before agonists were injected into the CTA, and the zero was readjusted after agonist injections.
To visualize secretions coming from the submucosal gland duct openings of the trachea, powdered tantalum, an inert metal (2-5 microns in size) was sprayed on the trachea until it formed a uniform layer over the mucosal surface. The tantalum itself did nothing to normal secretion, but prevented the normal ciliary dispersion of secretions from the gland duct openings; these secretions, therefore, caused elevations ("hillocks") in the tantalum layer. The number of hillocks formed in a 1.2 cm^2 field, 1-2 cm from the larynx, were counted and their images were recorded with a video camera (Hitachi CCTV, Model HV-17TU) mounted on a dissecting microscrope (Zeiss Ompi-1) with a beam splitter. […]

[4] = system: deep vein thrombosis; assay: deep vein thrombosis: jugular vein stasis in cats, scanning electron microscopy; assay type: in vivo, domestic short hair cats
Experimental: Nine adult domestic short hair cats weighing 4.5-5 kg were anesthetized with sodium pentabarbital (25-30 mg/kg i.v.). The neck area was prepared for a sterile cut down procedure and the jugular veins were exposed. After exposure of the veins each animal was injected with epsilon amino caproic acid (eaca) to inhibit plasminogen activation (2.5 grams i.v. in Tyrode's solution). […] Six of the cats were also treated with 2,3-diethyl-4-methoxy-1-naphthalenol, acetate. Three of the cats were given 1 mg/kg i.v. and 3 of the cats were treated with 5 mg/kg i.v. prior to venous occlusion. The jugular veins were carefully dissected free of surrounding connective tissue and the vein was ligated at the thoracic inlet with 3-0 dexon. The skin incision was closed and the animals were maintained in surgical anesthesia for 2 hours. At the end of the 2 hour waiting period, the jugular veins were exposed again. A 25 gauge butterfly needle was positioned into the lumen and blood was flushed out of the vein with heparinized Tyrode's solution (1U heparin/ml). The veins were tied off and removed under physiologic pressure. The vessels were immediately immersed in a 2.5% glutaraldehyde solution prepared in Tyrode's solution for fixation. The veins were fixed overnight at 5 degrees centigrade, postfixed in 1% osmium tetroxide overnight, dehydrated in ethanol and substituted by amyl acetate. All veins were critical point dried from carbon dioxide using a Denton DCP-1 critical point drying apparatus. The veins were mounted on stubas, gold coated on a Denton DV-502 modified vacuum evaporator and examined on a Cambridge Stereoscan 150 scanning electron microscope.
Two hours of jugular vein stasis following the trauma of dissection caused massive white cell adhesion to and migration under the venous endothelium of non-treated cats and produced sloughing of the endothelium and exposure of the basement membrane. This damage was sufficient to initiate thrombosis. Many of the exposed areas of basement membrane had adherent platelets. The platelets were adherent as monolayers or as aggregates. In some areas fibrin was found deposited on the endothelium or exposed basement membrane. Leukocytes were occasionally associated with the fibrin.

[5] = system: leukotriene synthesis; assay: inhibition of leukotriene synthesis (standard laboratory test); assay type: cell-based
Experimental: Certain of the amino acyl compounds of this invention (when R3 is --C(O)--(CR17 R18)m --(CH2)n --NR14 R15, --C(O)--AA or --C(O)--PhX--NH2) were evaluated in a standard laboratory test to measure the inhibition of leukotriene synthesis. Four of the amino-type compounds of this invention were preferred in this test. Specifically, in this test system, L-Valine, 2,3-diethyl-4-methoxynaphth-1-yl ester, hydrochloride; L-Valine, 2-n-butyl-4-methoxynaphth-1-yl ester; L-Valine, 2-n-butyl-4-methoxynaphth-1-yl ester, hydrochloride; and L-Alanine, 2-n-butyl-4-methoxynaphth-1-yl ester were preferred.

[6] = system: human airways; details: in vitro; cited from earlier work
[7] = 1.0 mg/kg oral, predose time 3.5 hr, n=2, ↑ indicates stimulation
[8] = 5 mg/kg oral, predose time 3.5 hr, n=2
[9] = 1.0%, inhalation, n=6, ***p<0.0001

Compound: CCCCc1cc(OC)c2ccccc2c1OC(C)=O [Example 3, 2-Butyl-4-methoxy-1-naphthalenol, acetate]
- inhibition at 10 µg/mL [1]: 100%
- inhibition of 5-HETE production [2]: completely inhibiting
- IC50 ([2]; lipoxygenase system, washed human platelets): ~0.1 µM
- % Inhibition of Agonist Response, Indo/AA ([3]; 0.001%, inhalation, n=4, **p<0.005): 100%
- % Inhibition of Agonist Response, Hypoxia ([3]; 0.001%, inhalation, n=4, *p<0.05): 87%
- % Inhibition of Agonist Response, Baseline: stimulation (.uparw.) ([3]; 0.001%, inhalation, n=4, ↑ indicates stimulation): 24%
- % Inhibition of Agonist Response, Indo/AA ([3]; 1.0 mg/kg oral, predose time 3.5 hr, n=2): 50%
- % Inhibition of Agonist Response, Baseline: stimulation (.uparw.) [3, 7]: 6%
- % Inhibition of Agonist Response, Hypoxia: stimulation (.uparw.) [3, 7]: 11%
- % Inhibition of Agonist Response, Indo/AA ([3]; 1.0 mg/kg oral, predose time 5.0 hr, n=2, *p<0.05): 62%
- % Inhibition of Agonist Response, Hypoxia [3, 8]: 49%
- % Inhibition of Agonist Response, Indo/AA [3, 8]: 69%
- % Inhibition of Agonist Response, Baseline: stimulation (.uparw.) ([3]; 5 mg/kg oral, predose time 3.5 hr, n=2, ↑ indicates stimulation): 30%
- % Inhibition of Agonist Response, Indo/AA ([3]; 5 mg/kg oral, predose time 4.5 hr, n=2): 95%
- % Inhibition of Agonist Response, Baseline ([3]; 0.01%, inhalation, n=5): 19%
- % Inhibition of Agonist Response, Hypoxia ([3]; 0.01%, inhalation, n=5): 91%
- % Inhibition of Agonist Response, Indo/AA ([3]; 0.01%, inhalation, n=5, **p<0.005): 100%
- % Inhibition of Agonist Response, Hypoxia ([3]; 10 mg/kg oral, predose time 3 hr, n=2): 94%
- % Inhibition of Agonist Response, Indo/AA ([3]; 10 mg/kg oral, predose time 3 hr, n=2, *p<0.05): 100%
- % Inhibition of Agonist Response, Baseline: stimulation (.uparw.) ([3]; 10 mg/kg oral, predose time 3 hr, n=2, ↑ indicates stimulation): 5%
- % Inhibition of Agonist Response, Indo/AA ([3]; 10 mg/kg oral, predose time 4 hr, n=2, *p<0.05): 100%
- % Inhibition of Agonist Response, Indo/AA ([3]; 10 mg/kg oral, predose time 5 hr, n=2, *p<0.05): 100%
- % Inhibition of Agonist Response, Baseline ([3]; 0.1%, inhalation, n=4): 23%
- % Inhibition of Agonist Response, Indo/AA ([3]; 0.1%, inhalation, n=4, **p<0.005): 100%
- % Inhibition of Agonist Response, Hypoxia ([3]; 0.1%, inhalation, n=4, *p<0.05): 96%
- % Inhibition of Agonist Response, Baseline ([3]; 1.0%, inhalation, n=6): 6%
- % Inhibition of Agonist Response, Hypoxia [3, 9]: 100%
- % Inhibition of Agonist Response, Indo/AA [3, 9]: 100%
- effect on baseline secretion and on enhanced mucus secretion due to hypoxia or arachidonic acid ([3]; mongrel dog model): effective in blocking baseline secretion in a dose dependent fashion as well as enhanced mucus secretion due to hypoxia or arachidonic acid administration

Compound: CCc1c(CC)c(OC(C)=O)c2ccccc2c1OC [Example 4, 2,3-Diethyl-4-methoxy-1-naphthalenol, acetate]
- inhibition at 10 µg/mL [1]: 95%
- inhibition of 5-HETE production [2]: completely inhibiting
- areas with detached endothelial cells or exposed basement membrane ([4]; 1 mg/kg i.v.): Few areas with detached endothelial cells or exposed basement membrane
- leukocyte adhesion or migration ([4]; 1 mg/kg i.v.): did not reduce leukocyte adhesion or migration
- leukocyte release of hydrolytic enzymes and production of superoxides ([4]; 1 mg/kg i.v.): apparently inhibited
- areas of adherent leukocytes ([4]; 5 mg/kg i.v.): only patchy areas of adherent leukocytes were observed
- fibrin deposition ([4]; 5 mg/kg i.v.): Only occasional small areas of fibrin deposition
- inhibitory effect on leukocyte mediated damage ([4]; 5 mg/kg i.v., compared with 1 mg/kg): even greater inhibitory effect on leukocyte mediated damage
- numbers of adhering and migrating leukocytes ([4]; 5 mg/kg i.v., compared with control or 1 mg/kg group): appeared to be less
- vascular surface with intact endothelial cell cover and few adherent leukocytes ([4]; 5 mg/kg i.v., with the exception of one vein): approximately half or more of the vascular surface
- effect on the vascular changes ([4]; 1 and 5 mg/kg i.v. prior to venous occlusion): dose dependent effect on the vascular changes

Compound: CCCCc1cc(OC)c2ccccc2c1OC(=O)[C@H](C)N [L-Alanine, 2-n-butyl-4-methoxynaphth-1-yl ester]
- inhibition at 1 µg/mL ([5]; 1 microgram/ml): 98%
- inhibition of synthesis of leukotriene ([5]; 10 micrograms/ml): completely inhibited

Compound: CCc1c(CC)c(OC(=O)[C@@H](N)C(C)C)c2ccccc2c1OC.Cl [L-Valine, 2,3-diethyl-4-methoxynaphth-1-yl ester, hydrochloride]
- inhibition at 1 µg/mL ([5]; 1 microgram/ml): 100%
- inhibition of synthesis of leukotriene ([5]; 10 micrograms/ml): completely inhibited

Compound: CCCCc1cc(OC)c2ccccc2c1OC(=O)[C@@H](N)C(C)C.Cl [L-Valine, 2-n-butyl-4-methoxynaphth-1-yl ester, hydrochloride]
- inhibition of synthesis of leukotriene ([5]; 1 microgram/ml): 93%
- inhibition of synthesis of leukotriene ([5]; 10 micrograms/ml): completely inhibited

Compound: CCCCc1cc(OC)c2ccccc2c1OC(=O)[C@@H](N)C(C)C [L-Valine, 2-n-butyl-4-methoxynaphth-1-yl ester]
- inhibition at 1 µg/mL ([5]; 1 microgram/ml): 97%
- inhibition of synthesis of leukotriene ([5]; 10 micrograms/ml): completely inhibited

Compound: COc1ccc2c(c1)c(CC(=O)O)c(C)n2C(=O)c1ccc(Cl)cc1 [indomethacin, reference compound]
- block of normal baseline secretion ([3]; indomethacin 5 mg/kg pretreatment, at least 30 minutes): about 20%
- block of the effect of arachidonate alone ([3]; indomethacin 5 mg/kg pretreatment, arachidonate 1.0 mg in the CTA): nicely blocked the effect of arachidonate alone

Compound: monohydroxyeicosatetraenoic acid
- release of mucus from human airways [6]: release mucus from human airway
